{"source": "PubChem BioAssay AID1963841", "about": "(Molecular Pharmacology Branch, DTP, NCI, 2024)", "system": "439559-082-T-J2-PDC spheroid viability", "assay": "Anticancer human tumor 439559-082-T-J2-PDC patient-derived colon adenocarcinoma cell line growth inhibition [POLQ]", "conditions": "spheroids with HUVEC and MSC; for pIC50: curve of first compound; for viability, T/C: stronger effect = lower value", "method_in_brief": "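Complex spheroid viability model combining PDC tumour cells with endothelial (HUVEC) and MSC stromal cells. Novobiocin, ART-558 or RP6685 were tested singly and in combination with standard and investigational anticancer drugs. Each was titrated in half-log steps from near clinical Cmax, or from 10 microM where Cmax was unknown.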", "key": {"[1]": {"conditions": "second compound 0.0316 µM, first compound 0.0316 µM"}, "[2]": {"conditions": "second compound 0.0316 µM, first compound 0.1 µM"}, "[3]": {"conditions": "second compound 0.1 µM, first compound 0.0316 µM"}, "[4]": {"conditions": "second compound 0.1 µM, first compound 0.1 µM"}, "[5]": {"conditions": "second compound 0.316 µM, first compound 0.0316 µM"}, "[6]": {"conditions": "second compound 0.316 µM, first compound 0.1 µM"}, "[7]": {"conditions": "second compound 1 µM, first compound 0.0316 µM"}, "[8]": {"conditions": "second compound 1 µM, first compound 0.1 µM"}, "[9]": {"conditions": "second compound 3.16 µM, first compound 0.0316 µM"}, "[10]": {"conditions": "second compound 3.16 µM, first compound 0.1 µM"}, "[11]": {"conditions": "second compound 10 µM, first compound 0.0316 µM"}, "[12]": {"conditions": "second compound 10 µM, first compound 0.1 µM"}}, "note": "pIC50: −log10 of the molar value.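 Further: spheroids exposed to compounds for seven days before readout.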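 Wherever viability, T/C is given: 100% = DMSO vehicle control viability.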"}
{"smiles": "CCc1cc2c(N3CCc4c(cc(Cn5ccnc5)cc4-c4cn(C)nc4C(F)(F)F)C3=O)ccnc2c(OC)n1", "note": "+ COC1C(OC(N)=O)C(O)C(Oc2ccc3c(O)c(NC(=O)c4ccc(O)c(CC=C(C)C)c4)c(=O)oc3c2C)OC1(C)C", "values": [{"measurement": "pIC50", "setting": "second compound 0.0316 µM", "value": "< 5.00"}, {"measurement": "pIC50", "setting": "second compound 0.1 µM", "value": "< 5.00"}, {"measurement": "pIC50", "setting": "second compound 0.316 µM", "value": "< 5.00"}, {"measurement": "pIC50", "setting": "second compound 1 µM", "value": "< 5.00"}, {"measurement": "pIC50", "setting": "second compound 3.16 µM", "value": "< 5.00"}, {"measurement": "pIC50", "setting": "second compound 10 µM", "value": "< 5.00"}, {"measurement": "viability, T/C", "setting": "[1]", "value": 95.2, "unit": "%"}, {"measurement": "viability, T/C", "setting": "[2]", "value": 104, "unit": "%"}, {"measurement": "viability, T/C", "setting": "second compound 0.0316 µM, first compound 0.316 µM", "value": 97.5, "unit": "%"}, {"measurement": "viability, T/C", "setting": "second compound 0.0316 µM, first compound 1 µM", "value": 95.2, "unit": "%"}, {"measurement": "viability, T/C", "setting": "second compound 0.0316 µM, first compound 3.16 µM", "value": 91.6, "unit": "%"}, {"measurement": "viability, T/C", "setting": "second compound 0.0316 µM, first compound 10 µM", "value": 95.3, "unit": "%"}, {"measurement": "viability, T/C", "setting": "[3]", "value": 100, "unit": "%"}, {"measurement": "viability, T/C", "setting": "[4]", "value": 103, "unit": "%"}, {"measurement": "viability, T/C", "setting": "second compound 0.1 µM, first compound 0.316 µM", "value": 96.1, "unit": "%"}, {"measurement": "viability, T/C", "setting": "second compound 0.1 µM, first compound 1 µM", "value": 90.7, "unit": "%"}, {"measurement": "viability, T/C", "setting": "second compound 0.1 µM, first compound 3.16 µM", "value": 99.2, "unit": "%"}, {"measurement": "viability, T/C", "setting": "second compound 0.1 µM, first compound 10 µM", "value": 95.2, "unit": "%"}, {"measurement": "viability, T/C", "setting": "[5]", "value": 107, "unit": "%"}, {"measurement": "viability, T/C", "setting": "[6]", "value": 107, "unit": "%"}, {"measurement": "viability, T/C", "setting": "second compound 0.316 µM, first compound 0.316 µM", "value": 101, "unit": "%"}, {"measurement": "viability, T/C", "setting": "second compound 0.316 µM, first compound 1 µM", "value": 109, "unit": "%"}, {"measurement": "viability, T/C", "setting": "second compound 0.316 µM, first compound 3.16 µM", "value": 91.5, "unit": "%"}, {"measurement": "viability, T/C", "setting": "second compound 0.316 µM, first compound 10 µM", "value": 90.3, "unit": "%"}, {"measurement": "viability, T/C", "setting": "[7]", "value": 110, "unit": "%"}, {"measurement": "viability, T/C", "setting": "[8]", "value": 106, "unit": "%"}, {"measurement": "viability, T/C", "setting": "second compound 1 µM, first compound 0.316 µM", "value": 99.4, "unit": "%"}, {"measurement": "viability, T/C", "setting": "second compound 1 µM, first compound 1 µM", "value": 92.9, "unit": "%"}, {"measurement": "viability, T/C", "setting": "second compound 1 µM, first compound 3.16 µM", "value": 93.1, "unit": "%"}, {"measurement": "viability, T/C", "setting": "second compound 1 µM, first compound 10 µM", "value": 87.6, "unit": "%"}, {"measurement": "viability, T/C", "setting": "[9]", "value": 99.6, "unit": "%"}, {"measurement": "viability, T/C", "setting": "[10]", "value": 109, "unit": "%"}, {"measurement": "viability, T/C", "setting": "second compound 3.16 µM, first compound 0.316 µM", "value": 99.4, "unit": "%"}, {"measurement": "viability, T/C", "setting": "second compound 3.16 µM, first compound 1 µM", "value": 92, "unit": "%"}, {"measurement": "viability, T/C", "setting": "second compound 3.16 µM, first compound 3.16 µM", "value": 93, "unit": "%"}, {"measurement": "viability, T/C", "setting": "second compound 3.16 µM, first compound 10 µM", "value": 89.6, "unit": "%"}, {"measurement": "viability, T/C", "setting": "[11]", "value": 106, "unit": "%"}, {"measurement": "viability, T/C", "setting": "[12]", "value": 93.7, "unit": "%"}, {"measurement": "viability, T/C", "setting": "second compound 10 µM, first compound 0.316 µM", "value": 99.1, "unit": "%"}, {"measurement": "viability, T/C", "setting": "second compound 10 µM, first compound 1 µM", "value": 101, "unit": "%"}, {"measurement": "viability, T/C", "setting": "second compound 10 µM, first compound 3.16 µM", "value": 102, "unit": "%"}, {"measurement": "viability, T/C", "setting": "second compound 10 µM, first compound 10 µM", "value": 94.5, "unit": "%"}]}
{"smiles": "Cn1ncnc1[C@H]1c2n[nH]c(=O)c3cc(F)cc(c23)N[C@@H]1c1ccc(F)cc1", "note": "+ COC1C(OC(N)=O)C(O)C(Oc2ccc3c(O)c(NC(=O)c4ccc(O)c(CC=C(C)C)c4)c(=O)oc3c2C)OC1(C)C", "values": [{"measurement": "pIC50", "setting": "second compound 0.0316 µM", "value": "< 7.00"}, {"measurement": "pIC50", "setting": "second compound 0.1 µM", "value": "< 7.00"}, {"measurement": "pIC50", "setting": "second compound 0.316 µM", "value": "< 7.00"}, {"measurement": "pIC50", "setting": "second compound 1 µM", "value": "< 7.00"}, {"measurement": "pIC50", "setting": "second compound 3.16 µM", "value": "< 7.00"}, {"measurement": "pIC50", "setting": "second compound 10 µM", "value": "< 7.00"}, {"measurement": "viability, T/C", "setting": "second compound 0.0316 µM, first compound 0.000316 µM", "value": 110, "unit": "%"}, {"measurement": "viability, T/C", "setting": "second compound 0.0316 µM, first compound 0.001 µM", "value": 95.8, "unit": "%"}, {"measurement": "viability, T/C", "setting": "second compound 0.0316 µM, first compound 0.00316 µM", "value": 102, "unit": "%"}, {"measurement": "viability, T/C", "setting": "second compound 0.0316 µM, first compound 0.01 µM", "value": 99.8, "unit": "%"}, {"measurement": "viability, T/C", "setting": "[1]", "value": 99, "unit": "%"}, {"measurement": "viability, T/C", "setting": "[2]", "value": 95.4, "unit": "%"}, {"measurement": "viability, T/C", "setting": "second compound 0.1 µM, first compound 0.000316 µM", "value": 110, "unit": "%"}, {"measurement": "viability, T/C", "setting": "second compound 0.1 µM, first compound 0.001 µM", "value": 108, "unit": "%"}, {"measurement": "viability, T/C", "setting": "second compound 0.1 µM, first compound 0.00316 µM", "value": 109, "unit": "%"}, {"measurement": "viability, T/C", "setting": "second compound 0.1 µM, first compound 0.01 µM", "value": 101, "unit": "%"}, {"measurement": "viability, T/C", "setting": "[3]", "value": 99.4, "unit": "%"}, {"measurement": "viability, T/C", "setting": "[4]", "value": 91.1, "unit": "%"}, {"measurement": "viability, T/C", "setting": "second compound 0.316 µM, first compound 0.000316 µM", "value": 104, "unit": "%"}, {"measurement": "viability, T/C", "setting": "second compound 0.316 µM, first compound 0.001 µM", "value": 102, "unit": "%"}, {"measurement": "viability, T/C", "setting": "second compound 0.316 µM, first compound 0.00316 µM", "value": 103, "unit": "%"}, {"measurement": "viability, T/C", "setting": "second compound 0.316 µM, first compound 0.01 µM", "value": 102, "unit": "%"}, {"measurement": "viability, T/C", "setting": "[5]", "value": 94.1, "unit": "%"}, {"measurement": "viability, T/C", "setting": "[6]", "value": 91.1, "unit": "%"}, {"measurement": "viability, T/C", "setting": "second compound 1 µM, first compound 0.000316 µM", "value": 108, "unit": "%"}, {"measurement": "viability, T/C", "setting": "second compound 1 µM, first compound 0.001 µM", "value": 97.1, "unit": "%"}, {"measurement": "viability, T/C", "setting": "second compound 1 µM, first compound 0.00316 µM", "value": 103, "unit": "%"}, {"measurement": "viability, T/C", "setting": "second compound 1 µM, first compound 0.01 µM", "value": 94.2, "unit": "%"}, {"measurement": "viability, T/C", "setting": "[7]", "value": 99.1, "unit": "%"}, {"measurement": "viability, T/C", "setting": "[8]", "value": 99, "unit": "%"}, {"measurement": "viability, T/C", "setting": "second compound 3.16 µM, first compound 0.000316 µM", "value": 101, "unit": "%"}, {"measurement": "viability, T/C", "setting": "second compound 3.16 µM, first compound 0.001 µM", "value": 99.6, "unit": "%"}, {"measurement": "viability, T/C", "setting": "second compound 3.16 µM, first compound 0.00316 µM", "value": 102, "unit": "%"}, {"measurement": "viability, T/C", "setting": "second compound 3.16 µM, first compound 0.01 µM", "value": 102, "unit": "%"}, {"measurement": "viability, T/C", "setting": "[9]", "value": 96.5, "unit": "%"}, {"measurement": "viability, T/C", "setting": "[10]", "value": 93.5, "unit": "%"}, {"measurement": "viability, T/C", "setting": "second compound 10 µM, first compound 0.000316 µM", "value": 106, "unit": "%"}, {"measurement": "viability, T/C", "setting": "second compound 10 µM, first compound 0.001 µM", "value": 93.3, "unit": "%"}, {"measurement": "viability, T/C", "setting": "second compound 10 µM, first compound 0.00316 µM", "value": 108, "unit": "%"}, {"measurement": "viability, T/C", "setting": "second compound 10 µM, first compound 0.01 µM", "value": 96, "unit": "%"}, {"measurement": "viability, T/C", "setting": "[11]", "value": 104, "unit": "%"}, {"measurement": "viability, T/C", "setting": "[12]", "value": 91, "unit": "%"}]}
